Data from ChEMBL document CHEMBL1909046, “DrugMatrix in vitro pharmacology data”.

How the values were obtained:
[1] = target: Beta-3 adrenergic receptor (Homo sapiens, UniProt P13945); assay: DRUGMATRIX: Adrenergic beta3 radioligand binding (ligand: [125I] Cyanopindolol); assay type: cell membranes, HEK293, Membrane; details: Not Active = under 50% inhibition at 10 µM
[2] = DRUGMATRIX: Serotonin (5-Hydroxytryptamine) 5-HT3 radioligand binding (ligand: [3H] GR-65630); assay type: cell membranes, Membrane; details: hek293; Not Active = under 50% inhibition at 10 µM
[3] = target: T1, Cholecystokinin receptor type A (Homo sapiens, UniProt P32238); assay type: cell membranes, Membrane; details: 1321-n1; also: in other assays of this panel Not Active means under 50% inhibition at 10 µM
T1 sequence (P32238 whole entry): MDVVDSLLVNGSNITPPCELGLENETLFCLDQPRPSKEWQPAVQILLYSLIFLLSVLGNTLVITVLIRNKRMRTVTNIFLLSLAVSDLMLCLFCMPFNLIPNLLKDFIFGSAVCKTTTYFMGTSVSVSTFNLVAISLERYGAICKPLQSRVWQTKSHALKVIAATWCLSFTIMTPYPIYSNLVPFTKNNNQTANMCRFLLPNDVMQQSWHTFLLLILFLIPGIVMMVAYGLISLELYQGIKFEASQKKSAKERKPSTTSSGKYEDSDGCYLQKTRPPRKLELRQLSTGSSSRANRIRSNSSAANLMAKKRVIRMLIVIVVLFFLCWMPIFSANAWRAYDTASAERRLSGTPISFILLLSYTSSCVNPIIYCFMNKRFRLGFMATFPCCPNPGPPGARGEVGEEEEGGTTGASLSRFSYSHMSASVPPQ

[4] = DRUGMATRIX: Glutamate, NMDA, Agonism radioligand binding (ligand: [3H] CGP-39653); assay type: cell membranes, Rattus norvegicus, Wistar, Cerebral cortex, Membrane; details: Not Active = under 50% inhibition at 10 µM
[5] = DRUGMATRIX: Nicotinic Acetylcholine radioligand binding (ligand: [125I] Epibatidine); assay type: cell membranes, Membrane; details: imr-32; Not Active = under 50% inhibition at 10 µM
[6] = DRUGMATRIX: Phorbol Ester radioligand binding (ligand: [3H] PDBu); assay type: cell membranes, Mus musculus, ICR, Brain, Membrane; details: Not Active = under 50% inhibition at 10 µM
[7] = target: Receptor tyrosine-protein kinase erbB-2 (Homo sapiens, UniProt P04626); assay: biochemical; assay type: cell-based, Insect cells; details: insect cells;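 also: inhibition of HER2 kinase enzyme activity, measured with Poly(Glu:Tyr) as the phosphorylation substrate; in other assays of this panel Not Active means under 50% inhibition at 10 µM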
Estrogen receptor = target: T2, Estrogen receptor (Homo sapiens, UniProt P03372); details: sf9; also: in other assays of this panel Not Active means under 50% inhibition at 10 µM
T2 sequence (P03372 whole entry): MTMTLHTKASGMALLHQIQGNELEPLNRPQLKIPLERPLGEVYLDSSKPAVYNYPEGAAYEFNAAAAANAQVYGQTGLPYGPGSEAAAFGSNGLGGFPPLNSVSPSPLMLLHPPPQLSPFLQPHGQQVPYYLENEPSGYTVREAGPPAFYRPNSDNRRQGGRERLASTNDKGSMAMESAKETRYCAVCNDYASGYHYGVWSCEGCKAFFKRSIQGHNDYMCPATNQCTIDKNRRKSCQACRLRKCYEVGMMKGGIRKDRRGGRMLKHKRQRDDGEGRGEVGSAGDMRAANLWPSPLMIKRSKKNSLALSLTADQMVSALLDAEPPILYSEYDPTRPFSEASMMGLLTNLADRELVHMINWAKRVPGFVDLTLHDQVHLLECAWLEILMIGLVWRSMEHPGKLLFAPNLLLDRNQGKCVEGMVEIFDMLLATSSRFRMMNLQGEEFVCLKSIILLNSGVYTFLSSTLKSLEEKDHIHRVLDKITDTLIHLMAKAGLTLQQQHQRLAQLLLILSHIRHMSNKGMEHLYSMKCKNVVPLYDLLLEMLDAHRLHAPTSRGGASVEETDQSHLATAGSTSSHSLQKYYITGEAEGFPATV

Sequence of Beta-3 adrenergic receptor (P13945 whole entry): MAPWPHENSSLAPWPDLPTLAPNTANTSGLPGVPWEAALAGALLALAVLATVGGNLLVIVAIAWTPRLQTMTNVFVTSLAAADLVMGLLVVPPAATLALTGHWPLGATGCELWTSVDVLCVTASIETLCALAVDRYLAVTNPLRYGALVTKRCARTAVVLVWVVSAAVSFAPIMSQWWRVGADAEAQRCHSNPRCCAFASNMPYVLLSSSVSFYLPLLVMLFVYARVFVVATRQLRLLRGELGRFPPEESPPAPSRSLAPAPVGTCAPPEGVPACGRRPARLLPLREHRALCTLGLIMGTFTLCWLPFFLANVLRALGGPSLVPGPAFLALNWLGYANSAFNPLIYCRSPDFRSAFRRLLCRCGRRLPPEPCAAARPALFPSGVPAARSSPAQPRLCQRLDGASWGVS

Compound | IC50 ([1]; hek293) | IC50 [2] | Ki [2] | IC50 [3] | IC50 [4] | Ki [4] | IC50 [5] | Ki [5] | IC50 [6] | Ki [6] | IC50 [7] | IC50 (Estrogen receptor) | Ki ([1]; hek293) | Ki [3] | Ki [7] | Ki (Estrogen receptor) | IC50 ([1]; read-out: IC50) | Ki ([1]; read-out: Ki)
CCS(=O)(=O)CCn1c([N+](=O)[O-])cnc1C [TINIDAZOLE] | Not Active | Not Active | Not Active | Not Active | Not Active | Not Active | Not Active | Not Active | Not Active | Not Active | Not Active | Not Active |  |  |  |  |  | 
Nc1nc2c(c(=O)[nH]1)N(C=O)C(CNc1ccc(C(=O)N[C@@H](CCC(=O)O)C(=O)O)cc1)CN2 (stereo not given in full) [LEUCOVORIN] | Not Active | Not Active | Not Active | Not Active | Not Active | Not Active | Not Active | Not Active | Not Active | Not Active | Not Active |  |  |  |  |  |  | 
CC(=O)O[C@H]1C[C@@H]2CC[C@@H]3[C@H](CC[C@@]4(C)[C@H]3C[C@H]([N+]3(C)CCCCC3)[C@@H]4OC(C)=O)[C@@]2(C)C[C@@H]1N1CCCCC1.[Br-] [VECURONIUM BROMIDE] | Not Active | Not Active | Not Active | Not Active | Not Active | Not Active | Not Active | Not Active | Not Active | Not Active | Not Active | Not Active |  |  |  |  |  | 
C[C@@H](O)[C@H]1C(=O)N2C(C(=O)O)=C(S[C@@H]3CN[C@H](C(=O)N(C)C)C3)[C@H](C)[C@H]12 [MEROPENEM] | Not Active | Not Active | Not Active | Not Active | Not Active | Not Active | Not Active | Not Active | Not Active | Not Active | Not Active |  |  |  |  |  |  | 
Cc1cn([C@H]2C[C@H](N=[N+]=[N-])[C@@H](CO)O2)c(=O)[nH]c1=O [ZIDOVUDINE] | Not Active | Not Active | Not Active | Not Active | Not Active | Not Active | Not Active | Not Active | Not Active | Not Active | Not Active | Not Active |  |  |  |  |  | 
COc1cc(N)nc2[nH]c(-c3ccc(F)cc3)c(-c3ccncc3)c12 | Not Active | Not Active | Not Active | Not Active | Not Active | Not Active | Not Active | Not Active | Not Active | Not Active | Not Active | Not Active |  |  |  |  |  | 
CN1C2CCCC1CC(NC(=O)c1nn(C)c3ccccc13)C2 (stereo not given) [GRANISETRON] | Not Active |  |  | Not Active |  |  |  |  |  |  | Not Active | Not Active |  |  |  |  |  | 
THIMEROSAL | Not Active | Not Active | Not Active | Not Active | Not Active | Not Active | Not Active | Not Active | Not Active | Not Active | Not Active | Not Active | Not Active | Not Active | Not Active | Not Active |  | 
C[C@]12CC[C@H]3[C@@H](CCC4=CC(=O)CC[C@@]43C)[C@@H]1CC[C@@H]2O [TESTOSTERONE] | Not Active | Not Active | Not Active | Not Active | Not Active | Not Active | Not Active | Not Active | Not Active | Not Active | Not Active | Not Active |  |  |  |  |  | 
CNS(=O)(=O)Cc1ccc2[nH]cc(CCN(C)C)c2c1 | Not Active | Not Active | Not Active | Not Active | Not Active | Not Active | Not Active | Not Active | Not Active | Not Active | Not Active |  |  |  |  |  |  | 
CO[C@H]1C[C@@H]2CC[C@@H](C)[C@@](O)(O2)C(=O)C(=O)N2CCCC[C@H]2C(=O)O[C@H]([C@H](C)C[C@@H]2CC[C@@H](O)[C@H](OC)C2)CC(=O)[C@H](C)/C=C(\C)[C@@H](O)[C@@H](OC)C(=O)[C@H](C)C[C@H](C)/C=C/C=C/C=C/1C [SIROLIMUS] | Not Active | Not Active | Not Active | Not Active | Not Active | Not Active | Not Active | Not Active | Not Active | Not Active | Not Active | Not Active |  |  |  |  |  | 
CC(C)OC(=O)C(C)(C)Oc1ccc(C(=O)c2ccc(Cl)cc2)cc1 [FENOFIBRATE] |  |  |  | Not Active |  |  |  |  |  |  | Not Active | Not Active |  |  |  |  | 124 µM | 93 µM
